# Experimental data reported in patent US11180518B2, “Phenyl-heterocycle-phenyl derivatives for use in the treatment or prevention of melanoma” (MAX-PLANCK-GESELLSCHAFT ZUR FÖRDERUNG DER WISSENSCHAFTEN …, priority 2017, dated 2021).
# “Also recorded” adds a separate entry of the source.
# Columns and labels:
# WM983-B melanoma cells [1] = assay: Autophagy: LC3 immunofluorescence; format: cell-based, human
# Method: We observed a clear effect of the anle compounds on the autophagy pathway of the melanoma cells. […] Following addition of anle138c, the effect was seen later with levels of 8% at 24 hr and 78% after 96 hr.
# Autophagy. WM983-B and SK-MEL-5 cells that for 24 or 48 hr were treated with anle138 or had received DMSO only were fixed for 20 min with 3.7% PFA, permeabilized, blocked, and probed with an anti-LC3B [clone 2G6] antibody (nanoTools Antikörpertechnik GmbH & Co. KG, Teningen, Germany), followed by a donkey anti-mouse Alexa-488 secondary antibody and Draq5 DNA counterstain. Confocal image stacks were obtained with a 63×NA 1.2 objective on a Zeiss LSM 510 Meta confocal microscope.
# WM983-B melanoma cells [2] = assay: Immunoblot analysis of p62/SQSTM1 expression; format: cell-based, human; conditions: 7.5 μM
# Method: For the analysis of p62/SQSTM1 protein expression, WM983-B melanoma whole-cell lysates were separated on 12% SDS-PAGE, transferred onto nitrocellulose membrane, blocked with 3% bovine serum albumin (BSA), probed with an anti-p62/SQSTM1 antibody (Cell Signaling Technology, Inc. Danvers, Mass., USA), followed by incubation with a corresponding HPR-conjugated secondary antibody and chemiluminescent substrate (EMD Millipore, Billerica, Mass., USA). Protein loading was determined by secondary probing with an anti-GAPDH antibody (Thermo Fisher Scientific Inc.).
# [3] = in vivo; cited from earlier work
# [4] = system: WM983-A, WM983-B, and SK-MEL-5 melanoma cell lines; assay: Apoptosis markers in treated melanoma cells; format: cell-based, human
# Excerpt: Although the morphological changes in the WM983-A, WM983-B, and SK-MEL-5 melanoma cell lines following addition of anle138b occurred quite rapidly, they were not indicative of the cells undergoing apoptosis. […] Differential interference contrast (DIC) images of the morphology of the anle138b-treated WM983-B, SK-MEL-5, and WM1158 melanoma cells from the same panels are shown in FIG. 9.
# WM983-B melanoma cells [5] = assay: Melanoma cell proliferation analysis (hemocytometer counting); format: cell-based, human; conditions: single dose of 10 μM, 24 hr
# Method: To compare how rapidly anle138b affected the proliferation of melanoma cells, expressing α-synuclein at a high level, we treated the melanoma cell lines, WM983-A (VGP) and WM983-B (MGP), for 24, 48 or 72 hr with 10 μM of anle138b, with replenishment of the compound (10 μM) at 48 hr.
# (§1) 10 or 30 mM stock solutions of anle138b or anle138c were made in DMSO. Since anle138b as well as anle138c bind strongly to FBS, melanoma cells, plated for 24 hr in tissue-culture medium containing 10% FBS, were rinsed three times with serum-free medium prior to addition of anle138b, anle138c, or an equivalent volume of DMSO only in serum-free medium. Forty-eight hours later, the cell culture medium was removed, followed by addition of an equivalent dose of anle138b or anle138c, or DMSO only in serum-free culture medium. […] Proliferation of melanoma cells that had received DMSO only, or were treated with anle138b was determined by counting the cells with a hemocytometer.
# [6] = system: autophagy markers, LC3 and p62/SQSTM1; conditions: mouse, in vivo; cited from earlier work
# [7] = system: high-level α-synuclein expressing cell lines WM983-B; assay: Initial screen of sixteen compounds from the DPP library; format: cell-based, human
# WM983-B melanoma cells [8] = assay: Cell morphology (phase-contrast); format: cell-based, human; conditions: increasing doses, serum-free medium; time- and dose-dependent
# Excerpt: (§2) To assess the possible impact of anle138b as well as anle138c on the different melanoma cell lines, WM983-A, WM983-B and SK-MEL-5, we treated them with increasing doses of either compound, dissolved in dimethyl sulfoxide (DMSO), and added to serum-free culture medium. […] We also observed that treatment with anle138b caused a more rapid morphological change than anle138c. To determine whether the effect of the two anle compounds was related to the amount of α-synuclein produced by the cells, we compared the proliferation of the (VGP) WM983-A high-level and the (RGP/VGP) WM1158 low-level α-synuclein-producing melanoma cells over a period of 96 hr, with replenishment of each anle compound at 48 hr (FIGS. 8A and B).
# as §1
# (§3) Cell morphology. Phase-contrast or DIC images of the melanoma cells that had been treated for various times with anle138b or anle138c, or had received DMSO only were captured with a 10×NA 0.6 objective on a Zeiss Axiovert 100 microscope with a Hamamatsu Orca charge-coupled device (CCD) camera. At least four images, at random areas per culture dish, were recorded for each time point.
# WM1158 melanoma cells = assay: Cell morphology (phase-contrast); format: cell-based, human; conditions: 10 μM, up to 96 hr, replenishment at 48 hr
# Excerpt: as §2, §1, §3
# SK-MEL-5 melanoma cells = assay: Cell morphology (phase-contrast); format: cell-based, human; conditions: increasing doses, serum-free medium; time- and dose-dependent
# Excerpt: as §2, §1, §3
# WM983-B melanoma cells [9] = assay: LDH cytotoxicity analysis; conditions: 2, 5, 10 or 15 μM for 96 hr, replenishment at 48 hr
# Method: Replicates of WM983-B as well as WM852 melanoma cells were plated at 3×10^5 cells per well in 35 mm tissue culture plates. Twenty-four hours later, the cells were rinsed three times with serum-free medium, followed by addition of increasing doses of anle138b or DMSO only. Forty-eight hours later, the cell culture medium was removed, followed by addition of equivalent doses of anle138b or DMSO only in serum-free medium. Culture medium, collected 48 hr later, was centrifuged to pellet and remove cellular debris. Using a PHERAstar FS microplate reader (BMG LABTECH GmbH, Ortenberg, Germany) and spectrophotometric absorbance measurement, the release of LDH enzyme activity into the tissue culture medium was determined with an LDH cytotoxicity assay kit (Roche Diagnostics Deutschland GmbH, Mannheim, Germany). […] Cells from the DMSO controls were trypsinized, counted, and lysed according to the manufacturer's instructions.
# Binding to FBS = format: in vitro ADME
compound,measurement,setting,value
"Brc1cccc(-c2cc(-c3ccc4c(c3)OCO4)n[nH]2)c1 [anle138b, 5-(3-Bromophenyl)-3-(3,4-methylenedioxyphenyl)-1H-pyrazole]",cells with punctuate upregulation of LC3,"WM983-B melanoma cells [1]; 24 hr, cells still attached",about 60%
same,cells with punctuate upregulation of LC3,"WM983-B melanoma cells [1]; 48 hr, cells remaining on the dish",95%
same,p62/SQSTM1 expression,"WM983-B melanoma cells [2]; 48 and 72 hr, replenishment at 48 hr, vs DMSO only",noticeably elevated
same,p62/SQSTM1 expression,WM983-B melanoma cells [2]; 24 hr,did not lead to an increase
same,oral bioavailability and blood-brain-barrier penetration,[3],excellent
same,cleaved caspase 3 (apoptosis),[4],nor were they positive for cleaved caspase 3
same,proliferation,WM983-B melanoma cells [5],inhibited the proliferation of both cell lines to a significant extent
same,"level of the autophagy markers, LC3 and p62/SQSTM1",[6],did not change
same,effect on WM983-B cells in initial screen,[7],significantly affected; also recorded: strongest and most rapid effect
same,morphological changes,WM983-B melanoma cells [8],major morphological changes
same,morphology,WM1158 melanoma cells,did not show a significantly altered morphology
same,morphological changes,SK-MEL-5 melanoma cells,major morphological changes
same,cell killing (LDH release),WM983-B melanoma cells [9],strong killing that reached a maximum at a 10 μM dose
same,binding to FBS,Binding to FBS,bind strongly
